Data on 24 compounds can be found in patent US7955808B2, “Bitter taste receptors” (Deutsches Institut für Ernährungsorschung, Stiftung des …, priority 2002, dated 2011).

Like-named read-outs stand apart in the source and are kept apart here.

For orientation: EC50 means the concentration giving half of the maximal effect.

One experiment addresses T1, hTAS2R38 (Homo sapiens, UniProt P59533).
T1 construct: gene-specific primers that span the complete coding region ... contains the first 45 amino acids of the rat somatostatin type 3 receptor
T1 sequence (P59533 1-333 A49P/I296V): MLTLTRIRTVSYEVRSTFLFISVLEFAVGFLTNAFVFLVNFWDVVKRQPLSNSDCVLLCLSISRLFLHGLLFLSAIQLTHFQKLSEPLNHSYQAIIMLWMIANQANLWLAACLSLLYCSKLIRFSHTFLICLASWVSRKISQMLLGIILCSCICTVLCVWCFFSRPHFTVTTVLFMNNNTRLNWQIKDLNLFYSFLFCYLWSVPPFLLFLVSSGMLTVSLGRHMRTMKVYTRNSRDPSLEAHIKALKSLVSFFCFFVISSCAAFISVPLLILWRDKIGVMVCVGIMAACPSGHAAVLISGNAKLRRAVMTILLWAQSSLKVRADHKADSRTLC
Put plainly: FLIPR assay, heterologous expression of hTAS2R38. The experiment is classed as cell-based.

Experiment [1] deals with T2, hTAS2R16 (Homo sapiens, UniProt Q9NYV7, R222H).
T2 construct: gene-specific primers that span the complete coding region of the individual hTAS2R genes; first 45 amino acids of rat somatostatin type 3 receptor (cell surface-targeting signal) (N); expressed in transfected cells; host or cells: HEK293/15 cells (HEK293 stably expressing Galpha15), transient transfection
T2 sequence (Q9NYV7 1-291 R222H): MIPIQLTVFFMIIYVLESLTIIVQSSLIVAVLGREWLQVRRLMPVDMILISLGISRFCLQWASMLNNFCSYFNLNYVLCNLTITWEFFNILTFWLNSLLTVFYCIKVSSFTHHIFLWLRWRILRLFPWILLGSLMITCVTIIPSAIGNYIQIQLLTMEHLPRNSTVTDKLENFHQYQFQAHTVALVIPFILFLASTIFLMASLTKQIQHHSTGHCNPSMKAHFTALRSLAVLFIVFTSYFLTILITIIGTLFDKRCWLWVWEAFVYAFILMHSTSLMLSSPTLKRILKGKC
Put plainly: FLIPR calcium assay, hTAS2R16-expressing HEK293/15 transfectants. The experiment is classed as cell-based. Here is the method: A fluorescence imaging plate reader (FLIPR, Molecular Devices) was used to functionally screen cell populations transiently transfected with expression vectors encoding the above-described 24 bitter receptors and to establish concentration-response curves for hTAS2R16 and hTASR10. […] For the FLIPR experiments the HEK293/15 cells were grown to 50% confluence. […] After 48 h the cells in each well were transfected using Lipofectamine 2000 and 24-30 h later were loaded with FIuo4AM (Molecular Probes). Thereafter they were stimulated with bitter compounds (SigmaAldrich, further purified by reversed-phase HPLC to >99% purity). Calcium signals were recorded simultaneously from each well at 1 Hz at 510 nm after excitation at 488 nm and the recordings were corrected for cell density. […] The calculations rest on at least four independent transfection experiments.
EC50 and threshold values obtained with hTAS2R16-expressing transfectants are shown in Table 1 below and the results are described in Example 4.

Experiment [2] deals with human panelists. Kind of experiment: Human taste adaptation experiment. It counts as in vivo. Here is the method: To investigate adaptation, the 8 panelists first maintained aqueous solutions (5 ml) of phenyl-β-D-glucopyranoside (8 mM), phenyl-alpha-D-glucopyranoside (180 mM), salicin (8 mM), or helicin (8 mM) for 15 s in their oral cavities and evaluated the bitter intensity as described above. After 30 min, they kept a denatonium benzoate solution (5 ml, 0.0003 mM) for 15 s in their mouth and evaluated its bitterness. The panelists spat off the denatonium benzoate solution, took up the phenyl-β-D-glucopyranoside or the phenyl-alpha-D-glucopyranoside solutions orally for 120 s or 180 s and judged their bitterness intensity after 15, 30, 60, 120 and 180s. Thereafter, the panelists spat off these solutions and then sequentially took up salicin, helicin (5 ml, 8 mM) and denatonium benzoate (5 ml, 0.0003 mM) and evaluated bitterness intensities of these solutions after 15 s. After an additional 30 min, the first experiment was repeated. The data of three different sessions for each panelist were averaged. Intensity values between individuals and separate sessions differed by not more than ±0.5 units.

For experiment [3], the system named is human panelists. Put plainly: Human taste experiments: bitter thresholds and dose-response by sensory panel. It counts as in vivo. Conditions: for EC50: bitterness intensity dose-response; for Threshold Value Human: bitter threshold, triangle test, tap water. Here is the method: 15 experienced panelists in a sensory panel room at 22-25° C. determined bitter thresholds on three different sessions using a triangle test with tap water as solvent, according to methodology set out in J. Agric. Food Chem., 49, 231-238 (2001), or Mailgaard M et al, “Sensory Evaluation Techniques” (CRC Press LLC, New York 1999). For dose-response relations, bitter tastant concentration series were presented to 10 trained panelists in random order. The panelists ranked the samples in increasing order of intensity and, for each concentration, evaluated bitterness intensity on a scale from 0 to 5 (ref. 24). The dose-response curves of three different sessions were averaged. The intensity values between individuals and separate sessions differed by not more than 0.5 units.

A further experiment addresses T3, hTAS2R10 (Homo sapiens, UniProt Q9NYW0, T156M).
T3 construct: gene-specific primers that span the complete coding region of the individual hTAS2R genes; first 45 amino acids of rat somatostatin type 3 receptor (cell surface-targeting signal) (N); expressed in transfected cells; host or cells: HEK-293T-Gα16gustducin44 cells (alternatively HEK-293 co-transfected with phospholipase-Cβ2 and α-gustducin)
T3 sequence (Q9NYW0 1-307 T156M): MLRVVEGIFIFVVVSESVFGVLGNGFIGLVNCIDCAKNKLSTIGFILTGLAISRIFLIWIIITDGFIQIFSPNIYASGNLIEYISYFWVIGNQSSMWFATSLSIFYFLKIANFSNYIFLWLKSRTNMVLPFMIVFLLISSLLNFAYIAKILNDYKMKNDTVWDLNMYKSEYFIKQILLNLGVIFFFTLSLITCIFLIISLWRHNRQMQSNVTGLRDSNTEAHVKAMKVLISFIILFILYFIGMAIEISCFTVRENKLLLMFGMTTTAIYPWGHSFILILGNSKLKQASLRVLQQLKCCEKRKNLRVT
Kind of experiment: FLIPR assay, heterologous expression of hTAS2R10. The experiment is classed as cell-based. The source says:
(§1) Transient transfection of TAS2Rs into HEK-293T-Gα16gustducin44 cells.

Experiment [4] deals with T2, hTAS2R16. Kind of experiment: FLIPR assay, heterologous expression of hTAS2R16. The experiment is classed as cell-based.
Text: as §1

Text for hTAS2R38: These cells stably express a chimeric G protein constructed from human Gα16 and rat gustducin. Finally, we seeded the transfected cells at a density of 3×10^3 cells per well into 96-well black-wall, clear-bottom microtiter plates (Greiner).
Co-transfection of TAS2Rs with gustducin and phospholipase-Cβ2 into HEK-293 cells. Alternatively, we transfected simultaneously plasmid DNAs encoding one of the TAS2Rs, phospholipase-Cβ2 and α-gustducin into HEK-293 cells using the lipofectamine method. Additional cotransfection of G-protein β and γ-subunits may improve the bitter tastant-induced responses. Thereafter, the transfected cells were seeded at a density of 3×10^3 cells per well into 96-well black-wall, clear-bottom microtiter plates (Greiner).
Thereafter, cells were gently washed in HBS by an automated plate washer (Denley Cellwash, Labsystenms) and transferred to the FLIPR (Molecular Devices). The FLIPR integrates an argon laser excitation source, a 96-well pipettor, and a detection system utilizing a Charged Coupled Device imaging camera. […] Fluorescence data were collected 1 min before and 10 min after stimulation. Data were collected every 6 s before and every 1 s after agonist stimulation. 50 μl of 3× concentrated agonists were delivered within 2 by the integrated 96-well pipettor to the wells containing 100 μl HBS. Agonist responses were quantified using the amplitudes of the fluorescence peaks. We averaged the responses of five wells containing cells expressing the same receptor and that received the same stimulus. Calcium traces were determined in triplicate of mock-transfected cells stimulated with the same concentration of tastant.

On to `CC(=O)NC(N)=S` [Acetylthiourea], for which, on hTAS2R38, the “Approx. Threshold” value is 2 µM and the “receptor activation (in words)” value is “activated”. Also, the EC50 on hTAS2R38 (read-out: EC50) was determined as 0.015 mM.

Regarding `OCC1OC(Oc2ccccc2)C(O)C(O)C1O` [Compound 11, phenyl-alpha-D-glucopyranoside], on hTAS2R16 [1], the EC50 is above 100 mM and the “Threshold Value FLIPR” value was “n.r. (No response up to 100 mM)”. In the experiment on human panelists [2] (120 s or 180 s in the mouth), the “own bitterness during prolonged stimulation (adaptation)” value was “desensitized strongly”. The “cross-adaptation with all tested beta-D-glucopyranosides” value in the experiment on human panelists [2] (in vivo) was “failed to cross-adapt”. Besides, in the experiment with human panelists [3] (Homo sapiens), the half-maximal effective concentration (EC50) is 50 mM. In the experiment with human panelists [3], the “Threshold Value Human” value was 9 ± 3 mM.

As to `COc1cc2c(cc1OC)[C@@]13CCN4CC5=CCO[C@H]6CC(=O)N2[C@H]1[C@H]6[C@H]5C[C@H]43` [Brucine], on hTAS2R10, the response was half-maximal at 0.06 mM (EC50). In addition, at hTAS2R10 (hTAS2R10), the Approx. Threshold is recorded as 0.01 mM and the “receptor activation (in words)” value is on record as “activated”.

With `S=C1NCCN1` [2-Imidazolidinethione], at hTAS2R38, the “Approx. Threshold” value was found to be 10 µM and the “receptor activation (in words)” value was “activated”.

As to Thioacetamide, on hTAS2R38, the “Approx. Threshold” value was 100 µM and the “receptor activation (in words)” value is given as “activated”.

`O=[N+]([O-])c1ccccc1O[C@@H]1O[C@H](CO)[C@@H](O)[C@H](O)[C@H]1O` [Compound 5, 2-nitro-phenyl-beta-D-glucopyranoside]: at hTAS2R16 [1], the “Threshold Value FLIPR” value worked out at 1.5 ± 0.5 mM. Further, at hTAS2R16 [4] (hTAS2R16), the Threshold is on record as 0.3 − 1 mM.

In the case of N-Methylthiourea, at hTAS2R38, the “Approx. Threshold” value was found to be 100 µM and the “receptor activation (in words)” value is recorded as “activated”. Also, the EC50 at hTAS2R38 (read-out: EC50) fell in the range of 0.6 to 0.8 mM.

Consider `Cc1cc(=O)[nH]c(=S)[nH]1` [4(6)-Methyl-2-thiouracil], for which, on hTAS2R38, the “Approx. Threshold” value is 20 µM and the “receptor activation (in words)” value is recorded as “activated”. In addition, at hTAS2R38 (read-out: EC50), the EC50 came out at 0.18 mM.

`O=[N+]([O-])c1ccc(S[C@@H]2O[C@H](CO)[C@@H](O)[C@H](O)[C@H]2O)cc1` [4-Nitrophenyl-β-D-Thioglucoside]: the Threshold at hTAS2R16 [4] (hTAS2R16) is listed as 1 − 5 mM.

In the case of `O=c1ccc2cc(O[C@@H]3O[C@H](CO)[C@@H](O)[C@H](O)[C@H]3O)c(O)cc2o1` [Compound 9, esculin], on hTAS2R16 [1], the “Threshold Value FLIPR” value was 4 ± 2 mM. The same compound showed a Threshold on hTAS2R16 [4] (hTAS2R16) of 4 ± 2 mM. The “Threshold Value Human” value in the experiment on human panelists [3] came to 4 ± 1 mM.

Regarding `CCNC(N)=S` [N-Ethylthiourea], on hTAS2R38, the “Approx. Threshold” value was 30 µM and the “receptor activation (in words)” value is “activated”. Further, the EC50 at hTAS2R38 (read-out: EC50) was 0.26 mM.

Take `CC(=S)Nc1ccccc1` [Thioacetanilide]: at hTAS2R38, the “Approx. Threshold” value came to 3 µM and the “receptor activation (in words)” value is on record as “activated”. Moreover, at hTAS2R38 (read-out: EC50), the EC50 is 0.018 mM.

Take `NC(=S)Nc1ccccc1` [Phenylthiocarbamid]: at hTAS2R38, the “Approx. Threshold” value worked out at 0.3 µM, it took 0.002 mM to reach a half-maximal effect (EC50) and the “receptor activation (in words)” value is listed as “activated”.

With `OC[C@H]1O[C@@H](Oc2ccc3ccccc3c2)[C@H](O)[C@@H](O)[C@@H]1O` [Compound 6, naphthyl-beta-D-pyranoside], the EC50 was 1 mM at hTAS2R16 [1]; 1 ± 0.1 mM on hTAS2R16 [4] (hTAS2R16, read-out: EC50); 1.4 mM in the experiment with human panelists [3] (Homo sapiens). In addition, the “Threshold Value Human” value in the experiment on human panelists [3] turned out to be 0.2 ± 0.1 mM.

On to `OC[C@H]1O[C@@H](Oc2ccccc2)[C@H](O)[C@@H](O)[C@H]1O` [Compound 10, phenyl-beta-D-galactopyranoside], for which, at hTAS2R16 [1], the EC50 is above 100 mM and the “Threshold Value FLIPR” value is “n.r. (No response up to 100 mM)”. Moreover, the “Threshold Value Human” value in the experiment with human panelists [3] worked out at 40 ± 13 mM.

Take `COC1OC(CO)C(O)C(O)C1O` [Compound 7, methyl-beta-D-lucopyranoside]: the “Threshold Value Human” value with human panelists [3] is 32 ± 11 mM.

`CN(C)C(=S)N(C)C` [Tetramethylthiourea]: at hTAS2R38, the “Approx. Threshold” value lay within 10 to 30 µM and the “receptor activation (in words)” value is listed as “activated”. The EC50 at hTAS2R38 (read-out: EC50) worked out at 0.1 mM.

As for `O=[N+]([O-])c1ccc(O[C@@H]2O[C@H](CO)[C@@H](O)[C@H](O)[C@H]2O)cc1` [4-Nitrophenyl-β-D-Glucoside], the Threshold at hTAS2R16 [4] (hTAS2R16) is given as 1 − 3 mM.

As for `O=[N+]([O-])c1ccc(O[C@@H]2O[C@H](CO)[C@@H](O)[C@H](O)[C@@H]2O)cc1` [4-Nitrophenyl-β-D-Mannoside], the Threshold on hTAS2R16 [4] (hTAS2R16) is reported as 1 − 3 mM.

With `OC[C@H]1O[C@@H](Oc2ccc(O)cc2)[C@H](O)[C@@H](O)[C@@H]1O` [Compound 4, arbutin], on hTAS2R16 [1], the EC50 was determined as 5.8 mM and the “Threshold Value FLIPR” value is 0.5 ± 0.2 mM. At hTAS2R16 [4] (hTAS2R16), this compound returned a Threshold of 0.5 ± 0.2 mM. At hTAS2R16 [4] (hTAS2R16, read-out: EC50), the EC50 amounted to 5.8 ± 0.9 mM. In addition, in the experiment on human panelists [3], the “Threshold Value Human” value amounted to 0.9 ± 0.3 mM and the EC50 is 5.4 mM.

Consider `N#CC(O[C@@H]1O[C@H](CO[C@@H]2O[C@H](CO)[C@@H](O)[C@H](O)[C@H]2O)[C@@H](O)[C@H](O)[C@H]1O)c1ccccc1` (stereo partly drawn) [Compound 8, amygdalin], for which the half-maximal effective concentration (EC50) is 20 mM at hTAS2R16 [1] and 20 ± 3.4 mM at hTAS2R16 [4].

As to `O=c1cc[nH]c(=S)[nH]1` [Compound 2-Thiouracil, 2-Thiouracil], at hTAS2R38, the “Approx. Threshold” value stood at 300 µM and the “receptor activation (in words)” value was “activated”. In addition, on hTAS2R38 (read-out: EC50), the EC50 is around 2 mM.

`O=c1cc(O)[nH]c(=S)[nH]1` [2-Thiobarbituric acid]: on hTAS2R38, the reacts at result was “reacts at 10 mM” and the “receptor activation (in words)” value is listed as “activated”.

With “N,N-dimethylthioformamide [N,N-Dimethyl- thioformamide]”, on hTAS2R38, the “Approx. Threshold” value amounted to 10 µM and the “receptor activation (in words)” value is “activated”. Also, the EC50 at hTAS2R38 (read-out: EC50) came out at 0.055 mM.
